Data from patent publication US11116731B2, “Hydrogen sulfide and/or nitrite in the treatment and prevention of atrial fibrillation” (Board of Supervisors of Louisiana State University and …, priority 2017, dated 2021).

Tested on: CSE knockout mice
Experiment: Inducible persistent AF (AF lasting more than 90 seconds after induction) in CSE knockout mice
Assay type: in vivo
Settings: for risk of inducible persistent AF: 200 ug/kg retro-orbitally (i.e. I.V.) for three days
Source text: Homocysteine induced reactive oxygen species reduces the ability of eNOS to properly function in generating nitric oxide (NO).
FIGS. 11 to 12B show mouse Mouse Electrophysiology and AF induction in mice and persistent AF and short run or non-persistent AF.

Row | SMILES | risk of inducible persistent AF (CSE knock out male mice) | risk of inducible persistent AF (female CSE knock out mice) | persistent AF (FIGS. 26A, 26B, 34A to 35B) (female CSE KO mice) | AF (electro cardio rhythms, FIGS. 25A and 25B) (female CSE KO mice, nitrite treated vs PBS) | incidence of inducible persistent AF (female CSE knockout mice, 165 ug/kg intraperitoneal for 3 days)
1 | C=CCSSSCC=C [DATS, diallyl trisulfide] | reduced to near wild type levels | no noticeable risk reduction | – | – | –
2 | [N]=O [NO, nitric oxide] | – | – | Reduced | – | –
3 | O=NO [sodium nitrite] | – | – | dramatically reduces | reduced | decrease
